The data set is described as follows: Enzymatic stability in plasma, HPLC. It is filed as in vitro ADME. Particulars: plasma specimen, 37° C., in the dark; read-out: Plasma T½ (converted). As for the experimental part: For the stability study, the solutions of pro-drug were prepared by dissolving an aliquot of Ketogal in a phosphate buffer at pH 7.4, or else in a solution of HCl 0.1 N (pH 1), as regards chemical stability, or else in a plasma specimen, for enzymatic stability. The solutions were kept in the dark, at a temperature of 37° C., for 24 hours. After each hour an aliquot of specimen was taken. In the case of plasma, said aliquot was previously extracted with acetonitrile (1:2), “vortexed” and centrifuged at 3000 r.p.m. for 10 min. The supernatant was taken and used for analysis at HPLC with diode detector. The half-lives for chemical stability and enzymatic stability were calculated by quantizing, in time, the percentage of pro-drug that remained in solution. For the chromatographic separations, a 1090L HPLC (Hewlett-Packard, Palo Alto, USA) was used, coupled to a diode detector HP 1040A. A Phenomenex Luna C18 (250×4.6 mm, 5 μm) column was used. The wavelength used was 313 nm. The mobile phase was constituted by acetonitrile and an aqueous solution of phosphoric acid […] (pH 3) in the ratio of 68:32. The flow was 1 mL/min, with an injection volume of 20 μl. All the reagents and the solvents used were of analytical degree. The distilled and deionized water was purified by means of a Milli Q system (Millipore). […] The straight line of calibration for quantification of the compounds was constructed using standard solutions with concentrations of between 0.1 and 100 μg/ml. […]
For the study of the stability, the solutions of pro-drug were prepared by dissolving an aliquot of Flugal in a phosphate buffer at pH 7.4, as regards chemical stability, or else in a plasma specimen, for enzymatic stability. […] The half-lives for the chemical stability and enzymatic stability were calculated by quantizing, in time, the percentage of pro-drug that remained in solution. […] For the quantitative determination reading was made at 250 nm. […] The straight line of calibration for the quantification of the compounds was constructed using standard solutions with concentrations of between 0.1 and 100 μg/ml. […]

From patent publication US8551958B2, “Galactosylated pro-drugs of non-steroidal anti-inflammatories with improved pharmacokinetic characteristics and reduced toxicity of the starting drug” (Stewart Italia Srl, priority 2008, dated 2013) come the findings set out here.

Turning to `O=C(c1ccccc1)c1ccc2n1CC[C@@H]2C(=O)OCC1O[C@H](O)C(O)C(O)[C@H]1O` (mixture of isomers) [Ketogal, ketorolac-D-galactos-6′-yl ester], the half-life was 1.5 h.
